Laboratory results: ChEMBL document CHEMBL5303573, “Mapping human microbiome drug metabolism by gut bacteria and their genes” (Nature, 2019)

Columns and labels:
[1] = The drug is tested on Eubacterium hallii strain: DSM3353 for biotransformation. The drug concentrations were measured before and after a 12-h incubation by liquid-chromatography-coupled mass spectrometry (LC–MS); conditions: anaerobutyricum hallii, 2 µM
[2] = The drug is tested on Clostridium scindens strain: ATCC35704 for biotransformation. The drug concentrations were measured before and after a 12-h incubation by liquid-chromatography-coupled mass spectrometry (LC–MS); conditions: 2 µM
[3] = bacteroides fragilis, 12 h, 2 µM
Description: The drug is tested on Bacteroides fragilis strain: NCTC 9343 for biotransformation. The drug concentrations were measured before and after a 12-h incubation by liquid-chromatography-coupled mass spectrometry (LC–MS)

[4] = The drug is tested on Coprococcus comes strain: ATCC27758 for biotransformation. The drug concentrations were measured before and after a 12-h incubation by liquid-chromatography-coupled mass spectrometry (LC–MS); type: ADME; set-up: dose 2 uM, timepoint 0 vs 12 hours; conditions: 2 µM
[5] = The drug is tested on Bifidobacterium breve strain: DSM20213 for biotransformation. The drug concentrations were measured before and after a 12-h incubation by liquid-chromatography-coupled mass spectrometry (LC–MS); conditions: 2 µM
[6] = The drug is tested on Edwardsiella tarda strain: ATCC23685 for biotransformation. The drug concentrations were measured before and after a 12-h incubation by liquid-chromatography-coupled mass spectrometry (LC–MS); conditions: 2 µM
[7] = segatella copri, 12 h, 2 µM
Description: The drug is tested on Prevotella copri strain: DSM18205 for biotransformation. The drug concentrations were measured before and after a 12-h incubation by liquid-chromatography-coupled mass spectrometry (LC–MS)

[8] = The drug is tested on Bacteroides finegoldii strain: DSM17565 for biotransformation. The drug concentrations were measured before and after a 12-h incubation by liquid-chromatography-coupled mass spectrometry (LC–MS); conditions: 2 µM
[9] = bacteroides thetaiotaomicron, 12 h, 2 µM
Description: The drug is tested on Bacteroides thetaiotaomicron strain: 7330 for biotransformation. The drug concentrations were measured before and after a 12-h incubation by liquid-chromatography-coupled mass spectrometry (LC–MS)

[10] = The drug is tested on Enterococcus faecalis strain: V583 for biotransformation. The drug concentrations were measured before and after a 12-h incubation by liquid-chromatography-coupled mass spectrometry (LC–MS); conditions: 2 µM
[11] = The drug is tested on Anaerotruncus colihominis strain: DSM17241 for biotransformation. The drug concentrations were measured before and after a 12-h incubation by liquid-chromatography-coupled mass spectrometry (LC–MS); conditions: 2 µM
[12] = The drug is tested on Bacteroides caccae strain: ATCC43185 for biotransformation. The drug concentrations were measured before and after a 12-h incubation by liquid-chromatography-coupled mass spectrometry (LC–MS); conditions: 2 µM
[13] = bifidobacterium adolescentis, 12 h, 2 µM
Description: The drug is tested on Bifidobacterium adolescentis strain: ATCC 15703 for biotransformation. The drug concentrations were measured before and after a 12-h incubation by liquid-chromatography-coupled mass spectrometry (LC–MS)

[14] = The drug is tested on Blautia luti strain: DSM14534 for biotransformation. The drug concentrations were measured before and after a 12-h incubation by liquid-chromatography-coupled mass spectrometry (LC–MS); type: ADME; set-up: dose 2 uM, timepoint 0 vs 12 hours; conditions: 2 µM
[15] = The drug is tested on Anaerococcus hydrogenalis strain: DSM7454 for biotransformation. The drug concentrations were measured before and after a 12-h incubation by liquid-chromatography-coupled mass spectrometry (LC–MS); conditions: 2 µM
[16] = parabacteroides distasonis, 12 h, 2 µM
Description: The drug is tested on Parabacteroides distasonis strain: ATCC8503 for biotransformation. The drug concentrations were measured before and after a 12-h incubation by liquid-chromatography-coupled mass spectrometry (LC–MS)

[17] = roseburia intestinalis, 12 h, 2 µM
Description: The drug is tested on Roseburia intestinalis strain: L1-82 for biotransformation. The drug concentrations were measured before and after a 12-h incubation by liquid-chromatography-coupled mass spectrometry (LC–MS)

[18] = limosilactobacillus reuteri cf48-3a, 12 h, 2 µM
Description: The drug is tested on Lactobacillus reuteri CF48-3A strain: BEI HM-102 for biotransformation. The drug concentrations were measured before and after a 12-h incubation by liquid-chromatography-coupled mass spectrometry (LC–MS)

[19] = The drug is tested on Ruminococcus lactaris strain: ATCC29176 for biotransformation. The drug concentrations were measured before and after a 12-h incubation by liquid-chromatography-coupled mass spectrometry (LC–MS); conditions: 2 µM

Row | SMILES | Bacterial Biotransformation [1] | Bacterial Biotransformation [2] | Bacterial Biotransformation [3] | Bacterial Biotransformation [4] | Bacterial Biotransformation [5] | Bacterial Biotransformation [6] | Bacterial Biotransformation [7] | Bacterial Biotransformation [8] | Bacterial Biotransformation [9] | Bacterial Biotransformation [10] | Bacterial Biotransformation [11] | Bacterial Biotransformation [12] | Bacterial Biotransformation [13] | Bacterial Biotransformation [14] | Bacterial Biotransformation [15] | Bacterial Biotransformation [16] | Bacterial Biotransformation [17] | Bacterial Biotransformation [18] | Bacterial Biotransformation [19]
1 | N#Cc1ccc2c(c1)N(CCCN1CCC(O)CC1)c1ccccc1S2 [PERICIAZINE] | Compound NOT metabolized | Compound NOT metabolized | Compound NOT metabolized | Compound NOT metabolized | Compound NOT metabolized | Compound NOT metabolized | Compound NOT metabolized | Compound metabolized | Compound metabolized | Compound NOT metabolized | Compound NOT metabolized | Compound metabolized | Compound NOT metabolized | Compound NOT metabolized | Compound NOT metabolized | Compound metabolized | – | – | –
2 | CC(=O)OCC(=O)[C@@]1(O)[C@@H](C)C[C@H]2[C@@H]3CCC4=CC(=O)C=C[C@]4(C)[C@@]3(F)[C@@H](O)C[C@@]21C [BETAMETHASONE ACETATE] | – | Compound NOT metabolized | Compound metabolized | Compound NOT metabolized | – | Compound NOT metabolized | Compound NOT metabolized | Compound NOT metabolized | Compound metabolized | Compound NOT metabolized | Compound NOT metabolized | – | Compound NOT metabolized | Compound NOT metabolized | Compound NOT metabolized | – | Compound NOT metabolized | Compound NOT metabolized | –
3 | O=C1CC2(CCCC2)CC(=O)N1CCCCN1CCN(c2ncccn2)CC1 [BUSPIRONE] | Compound NOT metabolized | Compound NOT metabolized | Compound NOT metabolized | Compound NOT metabolized | – | Compound NOT metabolized | Compound NOT metabolized | Compound NOT metabolized | Compound NOT metabolized | Compound NOT metabolized | Compound NOT metabolized | Compound NOT metabolized | Compound NOT metabolized | Compound NOT metabolized | Compound NOT metabolized | Compound NOT metabolized | Compound NOT metabolized | Compound NOT metabolized | Compound NOT metabolized
4 | CCCN(CCC)CCc1cccc2c1CC(=O)N2 [ROPINIROLE] | Compound NOT metabolized | Compound NOT metabolized | Compound NOT metabolized | Compound NOT metabolized | Compound NOT metabolized | Compound NOT metabolized | Compound NOT metabolized | Compound NOT metabolized | Compound NOT metabolized | Compound NOT metabolized | Compound NOT metabolized | – | Compound NOT metabolized | Compound NOT metabolized | Compound NOT metabolized | – | Compound NOT metabolized | Compound NOT metabolized | Compound NOT metabolized
5 | CC(O)(CS(=O)(=O)c1ccc(F)cc1)C(=O)Nc1ccc(C#N)c(C(F)(F)F)c1 (stereo not drawn) [BICALUTAMIDE] | Compound NOT metabolized | Compound NOT metabolized | – | Compound NOT metabolized | – | Compound NOT metabolized | Compound NOT metabolized | Compound NOT metabolized | Compound NOT metabolized | Compound NOT metabolized | Compound NOT metabolized | Compound NOT metabolized | Compound NOT metabolized | Compound NOT metabolized | Compound NOT metabolized | Compound metabolized | Compound NOT metabolized | Compound NOT metabolized | Compound NOT metabolized
6 | CCN1CCCC1CNC(=O)c1cc(S(N)(=O)=O)ccc1OC (stereo not drawn) [SULPIRIDE] | Compound NOT metabolized | Compound NOT metabolized | Compound NOT metabolized | Compound NOT metabolized | Compound NOT metabolized | Compound NOT metabolized | – | Compound NOT metabolized | – | Compound NOT metabolized | Compound NOT metabolized | Compound NOT metabolized | Compound NOT metabolized | Compound NOT metabolized | Compound NOT metabolized | – | Compound NOT metabolized | Compound NOT metabolized | Compound NOT metabolized
7 | Cc1cn([C@H]2C[C@H](N=[N+]=[N-])[C@@H](CO)O2)c(=O)[nH]c1=O [ZIDOVUDINE] | Compound NOT metabolized | Compound NOT metabolized | – | Compound metabolized | Compound NOT metabolized | Compound NOT metabolized | Compound NOT metabolized | Compound NOT metabolized | Compound NOT metabolized | Compound NOT metabolized | – | Compound NOT metabolized | Compound NOT metabolized | Compound NOT metabolized | Compound metabolized | Compound NOT metabolized | Compound metabolized | Compound NOT metabolized | Compound NOT metabolized
8 | CCN(CC)CCCC(C)Nc1c2ccc(Cl)cc2nc2ccc(OC)cc12 (stereo not drawn) [QUINACRINE] | Compound NOT metabolized | – | Compound NOT metabolized | Compound NOT metabolized | Compound NOT metabolized | – | Compound NOT metabolized | Compound NOT metabolized | Compound NOT metabolized | – | Compound NOT metabolized | – | Compound NOT metabolized | Compound NOT metabolized | – | Compound NOT metabolized | Compound NOT metabolized | Compound NOT metabolized | –
9 | CC(CN1c2ccccc2Sc2ccccc21)N(C)C (stereo not drawn) [PROMETHAZINE] | Compound NOT metabolized | Compound NOT metabolized | Compound NOT metabolized | Compound NOT metabolized | Compound NOT metabolized | Compound NOT metabolized | Compound NOT metabolized | Compound NOT metabolized | – | Compound NOT metabolized | Compound NOT metabolized | Compound NOT metabolized | Compound NOT metabolized | Compound NOT metabolized | Compound NOT metabolized | – | – | Compound NOT metabolized | –
